Test results reported in article PMC8248988, “A signal capture and proofreading mechanism for the KDEL-receptor explains selectivity and dynamic range in ER retrieval” (eLife, 2021).

Molecular target: T1, human KDELR1 D50N/N54R (Homo sapiens, UniProt P24390, D50N/N54R)
T1 construct: expressed in transfected cells; host or cells: COS-7
Experiment: ER retrieval assay, KDELR1 D50N/N54R-GFP
Type: cell-based
Conditions: COS-7 cells
From the text: To create KDELR1-GFP and KDELR2-GFP, the reading frames for Homo sapiens KDELR1 (Uniprot: P24390) and KDELR2 (Uniprot: P33947) were cloned into the pEF5/FRT low level mammalian expression vector with a C-terminal 20 amino acid linker made up of 5 copies of Gly-Ser-Ser-Ser followed by GFP. Specific point mutations were introduced using the Quickchange protocol (Stratagene) and are described in the key resources table and figures. To create the mScarlet-KDEL^sec ligand construct, mScarlet with an N-terminal hGH signal peptide and the 16 C-terminal residues of human BiP at its C-terminus, containing the KDEL signal, was cloned into the pcDNA3.1 vector. […] The Golgi marker protein TGN46 was detected by antibody (sheep anti-TGN46 AHP500G; AbD Serotec) and an Alexa 647 conjugated secondary anti-sheep secondary (A-21448, Invitrogen). In Figure 1d and e, endogenous KDELR was detected by antibody (mouse anti-KDELR ADI-VAA-PT048; Enzo Life Sciences) and Alexa 488 conjugated anti-mouse secondary antibody (A-21202, Invitrogen). For retrieval assays in other figures, KDELR-GFP fusion proteins were directly detected by fluorescence. The mScarlet-xDEL fusion proteins were directly detected by fluorescence. […] The fraction of KDEL receptor in the Golgi apparatus was calculated by dividing the Golgi signal by the total cell signal. […]

T1 sequence (P24390 whole entry D50N/N54R): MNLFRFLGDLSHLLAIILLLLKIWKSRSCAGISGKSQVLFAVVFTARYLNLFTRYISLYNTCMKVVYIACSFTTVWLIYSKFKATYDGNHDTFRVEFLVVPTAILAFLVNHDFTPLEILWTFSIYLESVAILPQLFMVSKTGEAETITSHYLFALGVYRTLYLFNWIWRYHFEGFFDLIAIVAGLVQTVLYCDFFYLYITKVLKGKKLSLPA

ligand-induced receptor retrieval to the ER (in words): gave a response
Substance: ADEL [pcDNA3.1 hGHss-mScarlet-H. sapiens BiP639-654K651A (ADEL^SEC), secreted mScarlet fusion with human BiP C-terminus, ADEL signal]
